According to the supplement of paper PMC10627819:

Legend:
S. aureus Newman [1] = experiment: fitness (endpoint OD595 vs no drug) (fraction); higher = more growth
In short: (§1)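 Fitness expresses the optical density reached at the stationary-phase transition as a fraction of the robust mean of no-drug control wells. It is capped at 1. Measurements were OD595 every 30 min for 14 h at 37 °C after inoculation of 384-well plates at OD595 0.01 (30 µl, or 55 µl for S. pneumoniae), minus the first reading.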

S. pneumoniae D39V [2] = experiment: as above
In short: as §1

B. subtilis 168 = experiment: Bliss interaction score (quartile over a dose matrix) (fitness difference); higher = more antagonism (negative = synergy)
In short: (§2)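 OD595 was read at entry into stationary phase and expressed relative to the robust mean of the no-drug wells on the same plate, capped at 1. The resulting ratio is the fitness value. The Bliss score, observed fitness minus product-based expected fitness with single-drug fitness inferred from combinations, is summarised by quartiles over technical, biological and donor/recipient replicates.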

S. aureus DSM 20231 = experiment: as above
In short: as §2

S. aureus Newman [3] = experiment: as above
In short: as §2

S. pneumoniae D39V [4] = experiment: as above
In short: as §2
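Throughout, for Bliss interaction score (quartile over a dose matrix): first quartile when negative (synergy) and third quartile when positive (antagonism).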

CO/N=C(\C(=O)N[C@@H]1C(=O)N2C(C(=O)[O-])=C(C[N+]3(C)CCCC3)CS[C@H]12)c1csc(N)n1 [Cefepime] + CC(C1CCC(C(O1)OC2C(CC(C(C2O)OC3C(C(C(CO3)(C)O)NC)O)N)N)N)NC [Gentamicin]
main component drawn
Conditions	fitness
S. aureus Newman [1], first compound 0.125 µg/mL, partner 0.375 µg/mL	0.954
S. aureus Newman [1], first compound 0.125 µg/mL, partner 0.5 µg/mL	0.871
S. aureus Newman [1], first compound 0.125 µg/mL, partner 0.75 µg/mL	0.94
S. aureus Newman [1], first compound 0.125 µg/mL, partner 1 µg/mL	≥ 1
S. aureus Newman [1], first compound 0.125 µg/mL, partner 1.5 µg/mL	0.916
S. aureus Newman [1], first compound 0.125 µg/mL, partner 2 µg/mL	≥ 1
S. aureus Newman [1], first compound 0.25 µg/mL, partner 0.375 µg/mL	0.857
S. aureus Newman [1], first compound 0.25 µg/mL, partner 0.5 µg/mL	0.816
S. aureus Newman [1], first compound 0.25 µg/mL, partner 0.75 µg/mL	0.837
S. aureus Newman [1], first compound 0.25 µg/mL, partner 1 µg/mL	0.906
S. aureus Newman [1], first compound 0.25 µg/mL, partner 1.5 µg/mL	0.787
S. aureus Newman [1], first compound 0.25 µg/mL, partner 2 µg/mL	0.966
S. aureus Newman [1], first compound 0.5 µg/mL, partner 0.375 µg/mL	0.799
S. aureus Newman [1], first compound 0.5 µg/mL, partner 0.5 µg/mL	0.757
S. aureus Newman [1], first compound 0.5 µg/mL, partner 0.75 µg/mL	0.818
S. aureus Newman [1], first compound 0.5 µg/mL, partner 1 µg/mL	0.804
S. aureus Newman [1], first compound 0.5 µg/mL, partner 1.5 µg/mL	0.744
S. aureus Newman [1], first compound 0.5 µg/mL, partner 2 µg/mL	0.87
S. pneumoniae D39V [2], first compound 0.007 µg/mL, partner 2 µg/mL	0.994
S. pneumoniae D39V [2], first compound 0.007 µg/mL, partner 4 µg/mL	0.996
S. pneumoniae D39V [2], first compound 0.007 µg/mL, partner 8 µg/mL	0.97
S. pneumoniae D39V [2], first compound 0.0078 µg/mL, partner 2 µg/mL	1
S. pneumoniae D39V [2], first compound 0.0078 µg/mL, partner 4 µg/mL	≥ 1
S. pneumoniae D39V [2], first compound 0.0078 µg/mL, partner 8 µg/mL	0.972
S. pneumoniae D39V [2], first compound 0.014 µg/mL, partner 2 µg/mL	≥ 1
S. pneumoniae D39V [2], first compound 0.014 µg/mL, partner 4 µg/mL	0.99
S. pneumoniae D39V [2], first compound 0.014 µg/mL, partner 8 µg/mL	≥ 1
S. pneumoniae D39V [2], first compound 0.0155 µg/mL, partner 2 µg/mL	0.964
S. pneumoniae D39V [2], first compound 0.0155 µg/mL, partner 4 µg/mL	0.974
S. pneumoniae D39V [2], first compound 0.0155 µg/mL, partner 8 µg/mL	0.971
S. pneumoniae D39V [2], first compound 0.028 µg/mL, partner 2 µg/mL	0.926
S. pneumoniae D39V [2], first compound 0.028 µg/mL, partner 4 µg/mL	0.932
S. pneumoniae D39V [2], first compound 0.028 µg/mL, partner 8 µg/mL	0.885
S. pneumoniae D39V [2], first compound 0.031 µg/mL, partner 2 µg/mL	0.493
S. pneumoniae D39V [2], first compound 0.031 µg/mL, partner 8 µg/mL	0.439

main component drawn
Conditions	Bliss interaction score
B. subtilis 168	-0.134
S. aureus DSM 20231	0.0966
S. aureus Newman [3]	-0.0492
S. pneumoniae D39V [4]	0.0531

CO/N=C(\C(=O)N[C@@H]1C(=O)N2C(C(=O)[O-])=C(C[N+]3(C)CCCC3)CS[C@H]12)c1csc(N)n1 [Cefepime] + CN(C)c1cc(NC(=O)CNC(C)(C)C)c(O)c2c1C[C@H]1C[C@H]3[C@H](N(C)C)C(O)=C(C(N)=O)C(=O)[C@@]3(O)C(O)=C1C2=O [Tigecycline]
Conditions	fitness
S. aureus Newman [1], first compound 0.125 µg/mL, partner 0.039 µg/mL	0.905
S. aureus Newman [1], first compound 0.125 µg/mL, partner 0.078 µg/mL	0.92
S. aureus Newman [1], first compound 0.125 µg/mL, partner 0.156 µg/mL	0.882
S. aureus Newman [1], first compound 0.25 µg/mL, partner 0.039 µg/mL	0.837
S. aureus Newman [1], first compound 0.25 µg/mL, partner 0.078 µg/mL	0.838
S. aureus Newman [1], first compound 0.25 µg/mL, partner 0.156 µg/mL	0.862
S. aureus Newman [1], first compound 0.5 µg/mL, partner 0.039 µg/mL	0.72
S. aureus Newman [1], first compound 0.5 µg/mL, partner 0.078 µg/mL	0.763
S. aureus Newman [1], first compound 0.5 µg/mL, partner 0.156 µg/mL	0.798
S. pneumoniae D39V [2], first compound 0.007 µg/mL, partner 0.325 µg/mL	0.996
S. pneumoniae D39V [2], first compound 0.007 µg/mL, partner 0.65 µg/mL	0.964
S. pneumoniae D39V [2], first compound 0.007 µg/mL, partner 1.3 µg/mL	0.955
S. pneumoniae D39V [2], first compound 0.0078 µg/mL, partner 0.65 µg/mL	0.963
S. pneumoniae D39V [2], first compound 0.0078 µg/mL, partner 1.3 µg/mL	0.943
S. pneumoniae D39V [2], first compound 0.0078 µg/mL, partner 2.6 µg/mL	0.918
S. pneumoniae D39V [2], first compound 0.014 µg/mL, partner 0.325 µg/mL	≥ 1
S. pneumoniae D39V [2], first compound 0.014 µg/mL, partner 0.65 µg/mL	0.983
S. pneumoniae D39V [2], first compound 0.014 µg/mL, partner 1.3 µg/mL	0.99
S. pneumoniae D39V [2], first compound 0.0155 µg/mL, partner 0.65 µg/mL	0.91
S. pneumoniae D39V [2], first compound 0.0155 µg/mL, partner 1.3 µg/mL	0.935
S. pneumoniae D39V [2], first compound 0.0155 µg/mL, partner 2.6 µg/mL	0.883
S. pneumoniae D39V [2], first compound 0.028 µg/mL, partner 0.325 µg/mL	0.951
S. pneumoniae D39V [2], first compound 0.028 µg/mL, partner 0.65 µg/mL	0.877
S. pneumoniae D39V [2], first compound 0.028 µg/mL, partner 1.3 µg/mL	0.865
S. pneumoniae D39V [2], first compound 0.031 µg/mL, partner 0.65 µg/mL	0.543
S. pneumoniae D39V [2], first compound 0.031 µg/mL, partner 1.3 µg/mL	0.698
S. pneumoniae D39V [2], first compound 0.031 µg/mL, partner 2.6 µg/mL	0.684

Conditions	Bliss interaction score
B. subtilis 168	0.115
S. aureus DSM 20231	0.0417
S. aureus Newman [3]	-0.0743
S. pneumoniae D39V [4]	0.0368

CO/N=C(\C(=O)N[C@@H]1C(=O)N2C(C(=O)[O-])=C(C[N+]3(C)CCCC3)CS[C@H]12)c1csc(N)n1 [Cefepime] + CN[C@@H]1[C@H](O[C@H]2[C@H](O[C@H]3[C@H](O)[C@@H](O)[C@H](N=C(N)N)[C@@H](O)[C@@H]3N=C(N)N)O[C@@H](C)[C@]2(O)C=O)O[C@@H](CO)[C@H](O)[C@H]1O [Streptomycin]
fitness
Conditions	partner 1 µg/mL	partner 2 µg/mL	partner 4 µg/mL	partner 8 µg/mL
S. aureus Newman [1], first compound 0.125 µg/mL	0.939	0.882	–	–
S. aureus Newman [1], first compound 0.25 µg/mL	0.865	0.848	–	–
S. aureus Newman [1], first compound 0.5 µg/mL	0.765	0.773	–	–
S. pneumoniae D39V [2], first compound 0.007 µg/mL	–	0.949	0.945	0.965
S. pneumoniae D39V [2], first compound 0.0078 µg/mL	–	–	≥ 1	0.903
S. pneumoniae D39V [2], first compound 0.014 µg/mL	–	0.971	0.954	0.984
S. pneumoniae D39V [2], first compound 0.0155 µg/mL	–	–	0.984	0.889
S. pneumoniae D39V [2], first compound 0.028 µg/mL	–	0.864	0.874	0.912
S. pneumoniae D39V [2], first compound 0.031 µg/mL	–	–	0.475	0.538

fitness, S. pneumoniae D39V [2], one replicate
Conditions	first compound 0.0078 µg/mL	first compound 0.0155 µg/mL	first compound 0.031 µg/mL
partner 2 µg/mL	≥ 1	0.977	0.468
partner 16 µg/mL	0.883	0.863	0.481

Conditions	Bliss interaction score
B. subtilis 168	-0.159
S. aureus DSM 20231	0.0906
S. aureus Newman [3]	0.0474
S. pneumoniae D39V [4]	0.0613

CCCCCCCCCC(=O)N[C@@H](Cc1c[nH]c2ccccc12)C(=O)N[C@H](CC(N)=O)C(=O)N[C@@H](CC(=O)O)C(=O)N[C@@H]1C(=O)NCC(=O)N[C@@H](CCCN)C(=O)N[C@@H](CC(=O)O)C(=O)N[C@H](C)C(=O)N[C@@H](CC(=O)O)C(=O)NCC(=O)N[C@H](CO)C(=O)N[C@@H]([C@H](C)CC(=O)O)C(=O)N[C@@H](CC(=O)c2ccccc2N)C(=O)O[C@@H]1C [Daptomycin] + C/C(=C\C(=O)OCCCCCCCCC(=O)O)C[C@@H]1OC[C@H](C[C@@H]2O[C@H]2[C@@H](C)[C@H](C)O)[C@@H](O)[C@H]1O [Pseudomonic acid]
fitness, S. aureus Newman [1], one replicate
Conditions	first compound 0.125 µg/mL	first compound 0.25 µg/mL	first compound 0.5 µg/mL
partner 0.0313 µg/mL	0.0598	0.0545	0.0362
partner 0.0625 µg/mL	0.0219	0.0175	0.0123
partner 0.125 µg/mL	0.0444	0.0303	0.0061

fitness, S. pneumoniae D39V [2]
Conditions	first compound 1 µg/mL	first compound 2 µg/mL	first compound 4 µg/mL
partner 0.03 µg/mL	0.895	0.904	0.893
partner 0.06 µg/mL	0.679	0.765	0.736
partner 0.12 µg/mL	0.324	0.407	0.408

Conditions	Bliss interaction score
B. subtilis 168	0.058
S. aureus DSM 20231	-0.0135
S. aureus Newman [3]	-0.0312
S. pneumoniae D39V [4]	-0.101
